Counter-ions that a name gives are not always drawn. Like-named read-outs stand apart in the source and are kept apart here.
Tests used:
BBB [1] = experiment: Doxorubicin biodistribution (HPLC)
Description: Organs were removed, dried, weighed, cut into multiple smaller pieces (approximately 100 mg tissue or 100 μl plasma) then thoroughly homogenised with 1 ml lysis buffer (0.25 M sucrose, 5 mM Tris-HCl, 1 mM MgSO4, 1 mM CaCl2, pH 6.7). 200 μl homogenate was then mixed with 1 ml acidified alcohol (70% ethanol, 0.3 N HCl), left overnight at −20° C., then centrifuged at 10,000×g for 30 minutes at 4° C. Supernatant was taken for HPLC analysis. Separation was via a Waters e2695 separation module, mobile phase 35% 10 mM KH2PO4, 65% methanol, flow rate 1 ml/min in an X-Bridge 5 μm column at 40° C. Detection used a Waters e2475 module (ex 480, em 600 nm).
Aryal et al., J. Control. Release, 204, 60-69 (2015); Kovacs et al., 2014; and Wohlfart et al., J Control Release, 154 (1), 103-107 (2011). […] The drug was allowed to circulate for two hours before the animal was perfused with saline. Doxorubicin was then extracted from the vital organs and quantified by HPLC (FIG. 8c). […] FIG. 2b.

BBB [2] = details: antibody 45 minutes following VEGF; preliminary evidence
Description: The antibody was allowed to circulate for 2 hours, then mice were perfused with 50 mL saline followed by 50 mL paraformaldehyde (4% w/v). The brain was removed, kept in 4% PFA overnight, then processed for frozen sections. As a positive control, 5 μl of antibody was injected directly into the brain prior to perfusion. Frozen sections were then stained using secondary antibody conjugated to Alexa 488. As a negative control, brain sections from an untreated animal were used. As a second positive control, a brain section from an untreated animal was stained with anti-nrCAM using conventional lab techniques (1hr room temperature). All images, aside from the stained positive control, were taken at fixed exposure lengths. The intensity of the green channel was quantified in ImageJ.

[3] = test system: DBTRG-05MG human glioblastoma cell line; experiment: MTT assay cell viability; assay type: cell-based; details: VEGF up to 100 ng/ml
Description: DBTRG-05MG human glioblastoma cells were used in this study. DBTRG-05MG cells were routinely cultured at 37° C. in RPMI 1640 media supplemented with 10% FBS, 1 mM sodium pyruvate and 1% penicillin/streptomycin. MTT assay was carried out in accordance with the manufacturer protocol. For GBM tumour generation, 300,000 live DBTRG-05MG cells, suspended in 6 μl sterile saline, were administered to 6 week old BALB/c NU mice by stereotactic injection, […] The location was 2 mm posterior to the bregma, 1.5 mm laterally in the right cerebral hemisphere, and 2.5 mm deep from the dura, thus delivering the cells into the thalamus. Baumann et al., J. Vis. Exp., No. 67, 3-6 (2012). Bone wax was applied to the skull and the skin was closed with sutures. The success rate of xenograft tumour formation was approximately 90%. Animal deaths were recorded when the animal succumbed from tumour progression, or upon sacrifice if they met pre-determined criteria including severe cachexia (loss of >25% starting body weight), inability to feed, and lack of response to toe-pinch stimulus. Gholamin et al., Cureus, 4, 1-14 (2013).

BBB [4] = details: pigs, VEGF vs control
Description: One minute later, a series of three post-contrast images were taken at the same settings. The two pre-contrast images were averaged, and the post contrast image with the highest SNR from each animal was selected for analysis.

astrocytes = details: between treatment groups
Description: (§1) Brain tumours from mice which died between day 60 to day 70 were selected for immunofluorescence staining. […] Primary antibodies and dilutions used were anti-Ki67 (1:500 GeneTex GTX16667), Isolectin IB4-AlexaFluor 647, anti-GFAP (1:500 AbCam ab68428), anti-Iba1 (1:1000 Wako 019-19741), anti-p-glycoprotein (1:100 AbCam ab170904), anti-pdgfrβ (1:100, ab32570 Abcam), anti-claudin-5 (1:50 34-1600 Thermo Fisher Scientific), anti-CD31 (1:100 550274, BD Pharmingen). Samples were fixed in 4% w/v paraformaldehyde (PFA) pH 6.8 overnight, embedded in paraffin and sectioned. Slides were de-waxed with xylene, rehydrated through graded alcohols to water, then subjected to antigen retrieval, permeabilisation and blocking in accordance with the manufacturers' instructions. Primary antibody was applied overnight at 4° C. diluted in blocking buffer, apart from isolectin, which was applied for one hour at room temperature. Slides were washed 3× with PBS, before the second primary antibody was added and left overnight at 4° C. Secondary antibodies used were goat anti-rabbit IgG-AlexaFluor 568 (Invitrogen A-11011) and goat anti-rat IgG-AlexaFluor 488 (Invitrogen A-11006), applied for one hour at room temperature. At least three separate sections were examined, and at least three images were captured per section. […]

P-glycoprotein = details: all time points after VEGF
Description: as §1

BBB [5] = details: mice
Description: After 30 minutes circulation, 50 ml phosphate buffered saline (PBS) was perfused through the abdominal aorta. Organs were removed, cut into multiple smaller pieces, rinsed, dried, weighed, homogenised in 500 μl formamide, heated at 60° C. overnight and centrifuged at 21,000×g for 15 minutes. Supernatant absorbance was measured at 620 nm with background correction at 740 nm, and unknowns quantified by standard curve. […] Radu et al., J. Vis. Exp., No. 73, e50062 (2013).
Concentrations from multiple pieces of the same organ were averaged. For imaging of Evans blue extravasation, a method from del Valle and colleagues was adapted. del Valle et al., J. Neurosci. Methods, 174 (1), 42-49 (2008). Mice were intracardially perfused with 50 ml PBS followed by 50 ml of Evans blue (1% w/v) in paraformaldehyde (4% w/v). Cryolesion injury, to induce a local area of BBB damage, was used as a positive control. The brain was embedded in optimal cutting temperature compound (OCT) and cryosectioned into 20 μm thick sections for analysis.

brain blood vessels = test system: brain blood vessels
Description: Mice were anaesthetised and perfused with PBS followed by 100 ml 4% PFA in […] phosphate buffer, pH 7.4. The brain was removed and post-fixed in 4% PFA (overnight, 4° C.) and washed in PBS. Coronal brain sections (100 μm thick) were cut on the same day with a cryomicrotome and processed free floating. Sections were immersed in 4% PFA, 2.5% glutaraldehye in PBS (overnight, 4 ° C.), washed with PBS for 5 minutes for 3 times. The specimens were immersed in 1% osmium tetroxide for 45 minutes, dehydrated and embedded with Spurr's low viscosity resin. The sample was then trimmed and sectioned using a Leica EM UC6 ultramicrotome. The ultrathin sections were then double stained with uranyl acetate and lead citrate. Images were acquired using Jeol JEM 1200EX TEM with an acceleration voltage of 80 KV.

[6] = test system: key genes related to BBB integrity
Description: Samples of mouse cerebral cortex weighing approximately 50 mg were homogenised in Trizol, and total RNA extracted via the manufacturer's protocol, then quantified by Nanodrop. Samples were reverse transcribed to cDNA using a SuperScript III Reverse-Transcriptase Kit (Life Technology). OmicsGreen qPCR SYBR Green master mix (Omics Bio, Taiwan) was used to monitor amplification using an Applied Biosystems 7500 Real-Time PCR system. GAPDH was used an internal control.

[7] = test system: pericyte coverage of blood vessels
Description: (§2) Brain tumours from mice which died between day 60 to day 70 were selected for immunofluorescence staining. […] Primary antibodies and dilutions used were anti-Ki67 (1:500 GeneTex GTX16667), Isolectin IB4-AlexaFluor 647, anti-GFAP (1:500 AbCam ab68428), anti-Iba1 (1:1000 Wako 019-19741), anti-p-glycoprotein (1:100 AbCam ab170904), anti-pdgfrβ (1:100, ab32570 Abcam), anti-claudin-5 (1:50 34-1600 Thermo Fisher Scientific), anti-CD31 (1:100 550274, BD Pharmingen). Samples were fixed in 4% w/v paraformaldehyde (PFA) pH 6.8 overnight, embedded in paraffin and sectioned. Slides were de-waxed with xylene, rehydrated through graded alcohols to water, then subjected to antigen retrieval, permeabilisation and blocking in accordance with the manufacturers' instructions. Primary antibody was applied overnight at 4° C. diluted in blocking buffer, apart from isolectin, which was applied for one hour at room temperature. Slides were washed 3× with PBS, before the second primary antibody was added and left overnight at 4° C. Secondary antibodies used were goat anti-rabbit IgG-AlexaFluor 568 (Invitrogen A-11011) and goat anti-rat IgG-AlexaFluor 488 (Invitrogen A-11006), applied for one hour at room temperature. At least three separate sections were examined, and at least three images were captured per section. For frozen sections, samples were perfusion fixed then submerged in 4% paraformaldehyde (PFA), cryoprotected in 30% w/v sucrose solution, then frozen in OCT, sectioned and stained as above, continuing on from blocking. H&E staining (Mayers) followed standard lab protocols. Images were captured using a Zeiss AxioScop microscope with AxioFluor objective lenses and AxioVision software, or a Model-Zeiss LSM 700 Stage confocal microscope.
(§3) GraphPad Prism 7.0b (Mac) was used for all statistical analysis and graph generation. For before-after analyses, paired t-test was used, and for grouped analyses one or two-way ANOVA (analysis of variance) with Tukey's post-test to correct for multiple comparisons were used. For tumour survival analyses, deaths were recorded and used to generate Kaplan-Meier survival curves which were compared using Mantel-Cox log rank tests. IVIS images of tumour luminescence and nanoparticle fluorescence were quantified using Living Image 4.0 software for Mac. MRI DICOM images were sorted in MicroDicom (Windows) and SNR calculation was performed in FIJI/ImageJ (Mac) using the measure tool. For heatmap generation, voxels within the animal were compared to the average of a 64*64 voxel region in the corner of the frame and the difference was scaled from 0 to 100, using Python. Adjustments to immunofluorescence image brightness and contrast were made to improve visual clarity and were applied equally to all images within a series. For colocalisation analysis, the raw images were analysed in Zeiss ZEN software. The threshold for no colocalisation was established using the DAPI/CD31 channels, and that threshold was then applied to the other channels. Pericyte alignment analysis was carried out using the freehand line selection tool in ImageJ. Figures were assembled in Affinity Designer (Mac).

claudin 5 = test system: claudin 5
Description: as §2, §3

BBB [8] = details: mice; remark: listed apart in the source
Description: For mice, a Pharmascan 7T 16-cm bore horizontal system was operated by a technician. […] Pre-contrast T1-weighted spin echo images were taken (repetition time (TR)=400 ms, echo time (TE)=10.8 ms, field of view (FOV)=2×2 cm, number of excitations (NEX)=8, slice thickness 0.8 mm). […] Post-contrast T1-weighted images were acquired one minute after contrast agent injection. The SNR was calculated by dividing the signal of a ROI (mean pixel intensity) by the standard deviation of the background noise. All image acquisition, SNR measurement and tumour volume measurement was performed by two MRI operating technicians, who were blinded to the study groups.

Claudin-5 = details: after VEGF administration
BBB [9] = experiment: HPLC quantification of TMZ in brain; assay type: in vivo; details: mice
Description: Approximately 100 mg tissue was homogenised in acidified ammonium acetate (200 μl, 10 mM pH 3.5), zinc sulphate (200 μl, 100 mM) and methanol (400 μl), followed by centrifugation at 10,000×g for 30 minutes at 4° C. Supernatant was taken for HPLC analysis. Separation was carried out with a Water e2695 separation module using 80:20 ratio of acetic acid (0.1% v/v) to methanol at a flow rate of 0.8 ml/min in an Atlantis T3 3 μm HPLC column at 35° C. Detection was performed using a Waters 2489 UV/vis detector at 316 nm. Theophylline was used as an internal standard, measured at 275 nm, and results calculated as the peak ratio of TMZ to theophylline.

[10] = mouse brain 45 minutes or 4 hours following VEGF
[11] = GBM tumour region, VEGF pre-treatment

For `COc1cccc2c1C(=O)c1c(O)c3c(c(O)c1C2=O)C[C@@](O)(C(=O)CO)C[C@@H]3O[C@H]1C[C@H](N)[C@H](O)[C@H](C)O1` [Doxorubicin, Doxorubicin Hydrochloride], which “doxorubicin concentration in brain after VEGF pre-treatment vs. control” value (BBB [1]; 8 mg/kg 45 minutes after VEGF, mice) is on record?
Its value is “statistically significant increase”.

And the “systemic Doxorubicin entering the brain” value (BBB [1]; healthy control mice, 8 mg/kg, two hours circulation)?
Its value is “less than 0.1%”.

Which “passage of systemically injected IgG antibody into the brain” value (BBB [2]) does the source give for VEGF here?
The value was “allows the passage of systemically injected IgG antibody into the brain”.

And the “effect on DBTRG-05MG cell viability” value [3]?
Its value is “did not affect”.

And the “SNR enhancement of the central cerebral sinus” value (BBB [4])?
Its value is “no significant difference”.

What about the “astrocyte morphology (GFAP)” value (astrocytes) of the same molecule?
The value was “no obvious change”.

What about the P-glycoprotein staining (P-glycoprotein) of the same molecule?
The P-glycoprotein staining was “appeared uniformly on the membrane of blood vessels at all time points”.

What about the “Evans blue uptake in kidney” value (BBB [5]; 45 minutes after VEGF) of the same molecule?
Its value is “increase”.

What about the “concentration of Evans blue in brain tissue compared to control-treated animals” value (BBB [5]; Evans blue 45 minutes after VEGF, 30 minutes circulation) of the same molecule?
The value was 4.85 fold.

And the “concentration of Evans blue in brain tissue compared to control” value (BBB [5]; Evans blue 4 hours following VEGF)?
The value was “no increase was detected”.

And the “morphology of brain blood vessels (TEM)” value (brain blood vessels; 15 minutes following VEGF injection)?
Its value is “slightly dilated and lacking adjacent pericytes”.

What about the “morphology of brain blood vessels (TEM)” value (brain blood vessels; 45 minutes following VEGF) of the same molecule?
The value was “no longer dilated”.

And the “morphology of brain blood vessels (TEM)” value (brain blood vessels; four hours following VEGF)?
Its value is “both vessels and pericytes appeared normal”.

What about the “p-glycoprotein gene expression (Abcb1a)” value ([6]; following VEGF at the given dose) of the same molecule?
Its value is “No change”.

What about the “expression of BBB transporters Slc2a1 (GLUT-1) and Slc6a8 (CRT)” value [6, 10] of the same molecule?
The value was “increase”.

And the “expression of tight junction components Tjp2 (ZO-2) and Cldn5 (Claudin 5)” value [6, 10]?
The value was “decrease”.

And the “pericyte coverage of blood vessels” value [7, 11]?
The value was 28.9%.

What about the “pericyte coverage of blood vessels” value ([7]; healthy brain, 15 minutes after VEGF) of the same molecule?
The value was 57.6%.

What about the “pericyte coverage of blood vessels” value ([7]; healthy brain, 45 minutes after VEGF) of the same molecule?
The value was 86.2%.

What about the “pericyte coverage of blood vessels” value ([7]; healthy brain, 4 hours after VEGF) of the same molecule?
The value was 83.0%.

And the “colocalisation of claudin 5 and CD31” value (claudin 5; [11])?
The value was 48.5%.

What about the “colocalisation of claudin 5 and CD31” value (claudin 5; healthy brain, 45 minutes following VEGF) of the same molecule?
Its value is 55.8%.

And the “colocalisation of claudin 5 and CD31” value (claudin 5; healthy brain, 4 hours following VEGF)?
The value was 42.7%.

And the “increase in average SNR of the cortex, post- vs pre-contrast” value (BBB [8]; Gd given 45 minutes following VEGF)?
The value was 16%.

What about the “SNR enhancement of the cortex, post- vs pre-contrast” value (BBB [8]; Gd given 4 hours after VEGF) of the same molecule?
Its value is “less than 5%”.

And the “signal enhancement of area surrounding central cerebral sinus” value (BBB [8]; VEGF vs control groups)?
Its value is “no significant difference between the groups”.

What about the “Claudin-5 protein expression (Western blot)” value (Claudin-5) of the same molecule?
The value was “trend towards reduced protein expression”.

For `Cn1nnc2c(C(N)=O)ncn2c1=O` [TMZ, Temozolomide], which “brain concentration of TMZ after VEGF pre-treatment” value (BBB [9]; TMZ 20 mg/kg) is on record?
Its value is “did not further enhance”.

What about the “TMZ concentration in the brain after VEGF pre-treatment” value (BBB [9]; VEGF or 10-fold higher VEGF) of the same molecule?
The value was “does not significantly increase”.
